# Test results: paper PMC11678245, “The Molecular Basis of the Intrinsic and Acquired Resistance to Azole Antifungals in Aspergillus fumigatus” (Journal of Fungi, 2024)
# Values joined by “and” are separate entries in the source; they are usually repeats but may differ in a detail not shown here. Identical values can stand only once. Like-named read-outs stand apart in the source and are kept apart here.
# Tests used:
# [1] = system: S. cerevisiae strain ARE Y121F (AfCyp51A-6×His Y121F, AfCprA2, AfErg6-FLAG); assay: MIC80 susceptibility, strain Y121F; format: cell-based, Saccharomyces cerevisiae
# Description: (§1) The susceptibilities of S. cerevisiae strains to antifungal drugs were determined as minimum growth inhibitory concentration (MIC) values in 200 μL SD pH 6.8 [24]. Serial 2-fold dilutions of 100 μL of azole or control drugs in SD pH 6.8 were prepared in a 96-well microtiter plate. A portion of a 2 mL SD pH 6.8 overnight culture of the test strain was inoculated into 3 mL fresh SD pH 6.8 and incubated for 4 to 6 h at 30 °C to generate logarithmic-phase cells. These cells were then diluted with fresh SD pH 6.8 to OD600nm = 0.01 (3 × 10^4 CFU), and 100 μL of this cell suspension was added to microtiter plate wells. Cell growth after 48 h incubation at 30 °C with shaking at 200 rpm was determined at 600 nm using a BioTek™ Synergy™ 2 multi-Mode microplate reader controlled using Gen5™ Data Analysis Software version 3.16.10 (BioTek Instruments, Winooski, VT, USA). MIC80 values (80% growth inhibition in the presence of the test drug compared with the untreated control) for each yeast construct were determined as technical triplicates repeated three times for three separate clones.
# [2] = system: S. cerevisiae strain ARE (AfCyp51A-6×His, AfCprA2, AfErg6-FLAG); assay: MIC80 susceptibility, strain ARE; format: cell-based, Saccharomyces cerevisiae
# Description: as §1
# [3] = system: S. cerevisiae strain ARE Y121F T289A (AfCyp51A-6×His Y121F T289A, AfCprA2, AfErg6-FLAG); assay: MIC80 susceptibility, strain Y121F T289A; format: cell-based, Saccharomyces cerevisiae
# Description: as §1
# [4] = system: S. cerevisiae strain ARE I301T (AfCyp51A-6×His I301T, AfCprA2, AfErg6-FLAG); assay: MIC80 susceptibility, strain I301T; format: cell-based, Saccharomyces cerevisiae; conditions: for MIC80: ± SD
# Description: as §1
# [5] = system: S. cerevisiae strain ARE T289A (AfCyp51A-6×His T289A, AfCprA2, AfErg6-FLAG); assay: MIC80 susceptibility, strain T289A; format: cell-based, Saccharomyces cerevisiae; conditions: for MIC80: ± SD
# Description: as §1
# [6] = system: S. cerevisiae strain BRE (AfCyp51B-6×His, AfCprA2, AfErg6-FLAG); assay: MIC80 susceptibility, strain BRE; format: cell-based, Saccharomyces cerevisiae; conditions: strain BRE; for MIC: 48 h; for MIC / MIC80: ± SD
# Description: as §1
# [7] = system: S. cerevisiae strain BR (AfCyp51B-6×His, AfCprA2-6×His); assay: MIC80 susceptibility, strain BR; format: cell-based; conditions: Saccharomyces cerevisiae, 48 h, pH 6.8
# Description: as §1
# [8] = system: S. cerevisiae strain AR (AfCyp51A-6×His, AfCprA2-6×His); assay: MIC80 susceptibility, strain AR; format: cell-based, Saccharomyces cerevisiae; conditions: Saccharomyces cerevisiae, 48 h, pH 6.8
# Description: as §1
# [9] = system: S. cerevisiae strain A (AfCyp51A-6×His, native ScCyp51 retained); assay: MIC80 susceptibility, strain A; format: cell-based; conditions: Saccharomyces cerevisiae, Table 2, SD pH 6.8, 48 h, 30 °C
# Description: as §1
# [10] = system: S. cerevisiae strain ADLS overexpressing ScCYP51-6×His; assay: MIC80 susceptibility, strain ADLS; format: cell-based, Saccharomyces cerevisiae
# Description: as §1
# AfCYP51B-6×His = biological target: T1, AfCYP51B-6×His (Aspergillus fumigatus, UniProt E9QY26); assay: Type II binding of azole drugs (difference spectra)
# T1 sequence (E9QY26 1-524): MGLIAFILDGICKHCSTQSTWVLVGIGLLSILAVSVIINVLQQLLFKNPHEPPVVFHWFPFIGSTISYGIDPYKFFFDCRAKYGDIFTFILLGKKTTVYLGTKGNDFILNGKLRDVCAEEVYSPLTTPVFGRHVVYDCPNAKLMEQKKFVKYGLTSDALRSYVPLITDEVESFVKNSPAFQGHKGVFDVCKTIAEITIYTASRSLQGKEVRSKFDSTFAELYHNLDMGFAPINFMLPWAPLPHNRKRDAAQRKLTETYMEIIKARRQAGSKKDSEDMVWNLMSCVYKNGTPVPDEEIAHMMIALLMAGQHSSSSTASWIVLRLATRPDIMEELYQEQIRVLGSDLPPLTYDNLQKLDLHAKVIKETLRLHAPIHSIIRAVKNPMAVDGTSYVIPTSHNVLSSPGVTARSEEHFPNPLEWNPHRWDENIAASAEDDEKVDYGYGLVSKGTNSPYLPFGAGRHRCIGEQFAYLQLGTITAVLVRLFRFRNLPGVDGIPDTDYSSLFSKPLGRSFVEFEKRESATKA
# Description: The concentration of AfCYP51A and AfCYP51B, purified using Ni-NTA affinity chromatography and used for the spectrophotometric type I and type II binding assays, was calculated using an extinction co-efficient of λ417nm = 117 mM^−1 cm^−1 applied to the absolute absorption spectrum of the preparations. In addition, the amount of “active” cytochrome P450 enzyme was determined using the carbon monoxide (CO) binding spectra of these preparations.
# Type II binding difference spectra were obtained using 1 μM of affinity-purified CYP51 enzymes. VCZ, PCZ, VT-1161, DCZ, and MCF working solutions were prepared in DMSO, while FLC was prepared in Milli-Q water. Azole drugs were added to the sample cuvette, and corresponding amounts of DMSO or Milli-Q water were added to the reference cuvette. Drug binding curves were plotted using the difference spectrum peak and trough detected in the range of 410–425 nm. Dissociation constants (Kd) were determined by nonlinear regression (Levenberg–Marquardt algorithm) of the difference in absorbance between the peak and trough against the azole concentration using a rearrangement of the Morrison equation or the Hill equation [7]. GraphPad Prism 9.2.0 software was used to identify the best fit for the data.
# [11] = system: S. cerevisiae strain ADΔΔ (native ScCYP51); assay: MIC80 susceptibility, host strain ADΔΔ; format: cell-based; conditions: Saccharomyces cerevisiae, Table 2, SD pH 6.8, 48 h, 30 °C
# Description: as §1
# [12] = system: S. cerevisiae Y2305 ADΔΔ CYP51 T322I (ScCYP51 T322I); assay: MIC80 susceptibility, strain Y2305 (Table S1); format: cell-based, Saccharomyces cerevisiae
# Description: as §1, with “clones. […]” for “clones.”
# (§2) Table S1. Azole susceptibilities of ScCYP51 and ScCYP51 T322I expressed
# (§3) Data for each strain was obtained for […] in three biological replicates.
# [13] = system: S. cerevisiae Y2300 ADΔΔ CYP51 (ScCYP51); assay: MIC80 susceptibility, strain Y2300 (Table S1); format: cell-based, Saccharomyces cerevisiae; conditions: Table S1; strain Y2300 ADΔΔ CYP51
# Description: as §1, with “clones. […]” for “clones.”
# as §2, §3
# [14] = Saccharomyces cerevisiae, Table 3, strain ARE Y121F, ± SD, read-out: MIC80
# [15] = Saccharomyces cerevisiae, 48 h, read-out: MIC80
# [16] = Saccharomyces cerevisiae, Table 3, strain ARE, ± SD, read-out: MIC80
# [17] = Saccharomyces cerevisiae, Table 3, strain ARE Y121F T289A, ± SD, read-out: MIC80
# [18] = Saccharomyces cerevisiae, Table 3, strain ARE I301T, read-out: MIC80
# [19] = Saccharomyces cerevisiae, Table 3, strain ARE T289A, read-out: MIC80
# [20] = Saccharomyces cerevisiae, Table 3
# [21] = Saccharomyces cerevisiae, Table 3, read-out: MIC80
# [22] = Table 3, strain ARE Y121F, ± SD
# [23] = Table 3, strain ARE Y121F T289A, ± SD
# [24] = Saccharomyces cerevisiae, 48 h, pH 6.8
compound,measurement,setting,value
"C[C@@H](c1nc(-c2ccc(C#N)cc2)cs1)[C@](O)(Cn1cncn1)c1ccc(F)cc1F [RVC, ravuconazole]",increase in resistance (MIC80) of strain Y121F compared with strain ARE,[1],3- to 5 fold and 6 fold
same,MIC80,[1]; [14],0.047 ± 0.005 µM
same,lower susceptibility of strain ARE compared to strain BRE,[2],2 fold
same,MIC,[2]; [15],< 0.0156 µM
same,MIC80,[2]; [16],0.0088 ± 0.0023 µM
same,increase in resistance (MIC80) of strain Y121F T289A compared with strain ARE,[3],3- to 5 fold
same,MIC80,[3]; [17],0.033 ± 0.006 µM
same,MIC80,[4]; [18],0.0034 ± 0.0015 µM
same,MIC80,[5]; [19],0.0032 ± 0.0015 µM
same,MIC,[6]; [20],< 0.0156 µM
same,MIC80,[6]; [21],0.0038 ± 0.0008 µM
OC(Cn1cncn1)(Cn1cncn1)c1ccccc1F [MCC7916],MIC80,[1]; [22],80 ± 17 µM
same,MIC80,"[2]; Table 3, strain ARE, ± SD",120 ± 40 µM
same,MIC80,[3]; [23],198 ± 41 µM
same,MIC80,"[4]; Table 3, strain ARE I301T",51 ± 6 µM
same,MIC80,"[5]; Table 3, strain ARE T289A",52 ± 6 µM
same,MIC80,[6]; Table 3,21 ± 3 µM
OC(Cn1cncn1)(Cn1cncn1)c1cc(F)ccc1F [MCC8768],MIC80,[1]; [22],324 ± 109 µM
same,MIC80,"[2]; Table 3, strain ARE, ± SD",354 ± 76 µM
same,reduced susceptibility compared to FLC,[2]; strain ARE,~ 3 fold
same,MIC80,[3]; [23],1025 ± 148 µM
same,MIC80,"[4]; Table 3, strain ARE I301T",211 ± 21 µM
same,reduced susceptibility compared to FLC,[4]; strain I301T,~ 3 fold
same,MIC80,"[5]; Table 3, strain ARE T289A",106 ± 28 µM
same,reduced susceptibility compared to FLC,[5]; strain T289A,> 6 fold
same,MIC80,[6]; Table 3,25 ± 8 µM
same,reduced susceptibility compared to FLC,[6],> 6 fold
"CC1COC(Cn2cncn2)(c2ccc(Oc3ccc(Cl)cc3)cc2Cl)O1 (centres unmarked) [DCZ, difenoconazole]",increased susceptibility of AfCYP51A Y121F mutant (vs ARE),[1],2 fold
same,MIC80,[1]; [24],0.37 ± 0.02 µM
same,MIC80,[2]; [24],0.64 ± 0.04 µM
same,MIC80,[7],< 0.01 µM
same,increase in resistance (MIC80) of strain Y121F T289A compared with strain ARE,[3],1.5 fold
same,MIC80,[3]; [24],0.92 ± 0.07 µM
same,MIC80,"[4]; Saccharomyces cerevisiae, 48 h, pH 6.8, Table 2, strain I301T, SD pH 6.8, 48 h, 30 °C",0.35 ± 0.06 µM
same,MIC80,[8],0.07 ± 0.01 µM
same,MIC80,[9],0.01 µM
same,MIC80,[10]; [24],0.04 ± 0.02 µM
same,MIC80,"[10]; Table 2, strain ADLS, SD pH 6.8, 48 h, 30 °C, ± SD",0.04 ± 0.01 µM
same,greater susceptibility (MIC80) of strain T289A compared with strain ARE,[5],64 fold
same,MIC80,"[5]; Saccharomyces cerevisiae, 48 h, pH 6.8, Table 2, strain T289A, SD pH 6.8, 48 h, 30 °C",< 0.01 µM
same,MIC80,"[6]; Saccharomyces cerevisiae, Table 2, SD pH 6.8, 48 h, 30 °C, read-out: MIC80",< 0.01 µM
same,λpeak (type II difference spectrum),AfCYP51B-6×His; 1 μM enzyme,426 nm
same,λtrough (type II difference spectrum),AfCYP51B-6×His; 1 μM enzyme,410 nm
same,ΔAmax (type II binding),"AfCYP51B-6×His; 1 μM enzyme, Hill equation",0.10
same,Hill Number,AfCYP51B-6×His; type II binding,1.55
same,Kd,"AfCYP51B-6×His; type II binding, 1 μM enzyme, Hill equation",1760 ± 80 nM
same,MIC80,[11],< 0.01 µM
OC(Cn1cncn1)(Cn1cncn1)c1ccc(F)cc1 [MCC7917],MIC80,[1]; [22],179 ± 9 µM
same,MIC80,"[2]; Table 3, strain ARE, ± SD",411 ± 30 µM
same,MIC80,[3]; [23],242 ± 41 µM
same,MIC80,"[4]; Table 3, strain ARE I301T",257 ± 37 µM
same,MIC80,"[5]; Table 3, strain ARE T289A",103 ± 11 µM
same,MIC80,[6]; Table 3,38 ± 11 µM
OC(Cn1cncn1)(Cn1cncn1)c1ccccc1 [MCC7915],MIC80,[1]; [22],180 ± 11 µM
same,MIC80,"[2]; Table 3, strain ARE, ± SD",427 ± 23 µM
same,reduced susceptibility compared to FLC,[2]; strain ARE,2.5 fold
same,MIC80,[3]; [23],219 ± 29 µM
same,MIC80,"[4]; Table 3, strain ARE I301T",278 ± 45 µM
same,MIC80,"[5]; Table 3, strain ARE T289A",248 ± 23 µM
same,MIC80,[6]; Table 3,223 ± 79 µM
same,reduced susceptibility compared to FLC,[6],50 fold
"C[C@@H](c1nc(-c2ccc(C#N)cc2)cs1)[C@](O)(Cn1cncn1)c1cc(F)ccc1F [IVC, isavuconazole]",increase in resistance (MIC80) of strain Y121F compared with strain ARE,[1],3- to 5 fold and 3 fold
same,MIC80,[1]; [14],0.071 ± 0.014 µM
same,lower susceptibility of strain ARE compared to strain BRE,[2],2 fold
same,MIC,[2]; [15],< 0.0156 µM
same,MIC80,[2]; [16],0.021 ± 0.007 µM
same,increase in resistance (MIC80) of strain Y121F T289A compared with strain ARE,[3],3- to 5 fold
same,MIC80,[3]; [17],0.11 ± 0.011 µM
same,MIC80,[4]; [18],0.0119 ± 0.0028 µM
same,MIC80,[5]; [19],0.0102 ± 0.0057 µM
same,MIC,[6]; [20],< 0.0156 µM
same,MIC80,[6]; [21],0.0109 ± 0.003 µM
CCC(C)n1ncn(-c2ccc(N3CCN(c4ccc(OCC5COC(Cn6cncn6)(c6ccc(Cl)cc6Cl)O5)cc4)CC3)cc2)c1=O (centres unmarked) [ITC],MIC80,[12],0.13 ± 0.01 µM
same,MIC80,[13],0.15 ± 0.01 µM
